Assay results taken from ChEMBL document CHEMBL1201862, “PubChem BioAssay data set” (2004).
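Five compound concentrations were applied to cells in 96-well plates for 48 hours; endpoints were derived by simple linear interpolation of the resulting dose-response curve. GI50 = concentration required for 50% inhibition of growth.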 Calls of active or inactive are those of the source. Rule as the data show it: active = GI50 up to about 1.1 µM and inactive = higher.

Key:
Experiment in all cases: DTP human tumour cell line panel, 48 h
[1] = tested on: SK-MEL-5
[2] = tested on: ACHN
[3] = tested on: NCI-H226
[4] = tested on: A498
[5] = tested on: RPMI-8226
[6] = tested on: CAKI-1
[7] = tested on: IGROV-1
[8] = tested on: SK-MEL-28
[9] = tested on: SNB-19
[10] = tested on: BT-549
[11] = tested on: CCRF-CEM
[12] = tested on: MDA-N
[13] = tested on: NCI/ADR-RES
[14] = tested on: UO-31
[15] = tested on: K562
[16] = tested on: SK-MEL-2
[17] = tested on: U-251
[18] = tested on: T47D
[19] = tested on: KM12
[20] = tested on: M14

Compound: c1ccc([P+](c2ccccc2)(c2ccccc2)c2ccc([P+](c3ccccc3)(c3ccccc3)c3ccccc3)cc2)cc1
- GI50 [1]: 41 µM (inactive)
- GI50 [2]: > 100 µM (inactive)
- GI50 [3]: 65.5 µM (inactive)
- GI50 [4]: > 100 µM (inactive)
- GI50 [5]: > 100 µM (inactive)
- GI50 [6]: > 100 µM (inactive)
- GI50 [7]: 59.7 µM (inactive)
- GI50 [8]: > 100 µM (inactive)
- GI50 [9]: 54.1 µM (inactive)
- GI50 [10]: 31.3 µM (inactive)
- GI50 [11]: 22.9 µM (inactive)
- GI50 [12]: 56.1 µM (inactive)
- GI50 [13]: > 100 µM (inactive)
- GI50 [14]: > 100 µM (inactive)
- GI50 [15]: 28.4 µM (inactive)
- GI50 [16]: 34.3 µM (inactive)
- GI50 [17]: 34.2 µM (inactive)
- GI50 [18]: 27.9 µM (inactive)
- GI50 [19]: 31 µM (inactive)
- GI50 [20]: 82 µM (inactive)

Compound: Cc1ccc2c(c1C)C(=O)C1(Cc3cc4c(cc3C1=O)CCC4)C2 (stereo not given)
- GI50 [1]: > 100 µM (inactive)
- GI50 [2]: > 100 µM (inactive)
- GI50 [3]: > 100 µM (inactive)
- GI50 [4]: > 100 µM (inactive)
- GI50 [5]: > 100 µM (inactive)
- GI50 [6]: > 100 µM (inactive)
- GI50 [7]: > 100 µM (inactive)
- GI50 [8]: > 100 µM (inactive)
- GI50 [9]: > 100 µM (inactive)
- GI50 [10]: > 100 µM (inactive)
- GI50 [11]: > 100 µM (inactive)
- GI50 [12]: > 100 µM (inactive)
- GI50 [13]: > 100 µM (inactive)
- GI50 [14]: > 100 µM (inactive)
- GI50 [15]: > 100 µM (inactive)
- GI50 [16]: > 100 µM (inactive)
- GI50 [17]: > 100 µM (inactive)
- GI50 [18]: > 100 µM (inactive)
- GI50 [19]: > 100 µM (inactive)
- GI50 [20]: > 100 µM (inactive)

Compound: O=C1C=CC(=O)c2c1ccc1c3ccccc3n(-c3cccc([N+](=O)[O-])c3)c21
- GI50 [1]: 5.57 µM (inactive)
- GI50 [2]: 1.7 µM (inactive)
- GI50 [3]: > 10 µM (inactive)
- GI50 [4]: 5.85 µM (inactive)
- GI50 [5]: 1 µM (active)
- GI50 [6]: 2.55 µM (inactive)
- GI50 [7]: 5.81 µM (inactive)
- GI50 [8]: 2.84 µM (inactive)
- GI50 [9]: > 10 µM (inactive)
- GI50 [10]: 1.69 µM (inactive)
- GI50 [11]: 0.357 µM (active)
- GI50 [12]: 2.2 µM (inactive)
- GI50 [13]: > 5.58 µM (inactive)
- GI50 [14]: 2.4 µM (inactive)
- GI50 [15]: 0.367 µM (active)
- GI50 [16]: > 10 µM (inactive)
- GI50 [17]: 9.71 µM (inactive)
- GI50 [18]: 2.38 µM (inactive)
- GI50 [19]: > 7.98 µM (inactive)
- GI50 [20]: 1.73 µM (inactive)

Compound: Nc1nc(N)c2ncn(-c3ccc(Br)cc3)c2n1
- GI50 [1]: 32.5 µM (inactive)
- GI50 [2]: 13.3 µM (inactive)
- GI50 [3]: 40.6 µM (inactive)
- GI50 [4]: 15.6 µM (inactive)
- GI50 [5]: 11.4 µM (inactive)
- GI50 [6]: 7.21 µM (inactive)
- GI50 [7]: 5.38 µM (inactive)
- GI50 [8]: > 43.3 µM (inactive)
- GI50 [9]: > 59.4 µM (inactive)
- GI50 [10]: 97.7 µM (inactive)
- GI50 [11]: 8.43 µM (inactive)
- GI50 [12]: 60.4 µM (inactive)
- GI50 [13]: 10.7 µM (inactive)
- GI50 [14]: 13.5 µM (inactive)
- GI50 [15]: 11 µM (inactive)
- GI50 [16]: 14.4 µM (inactive)
- GI50 [17]: 24.9 µM (inactive)
- GI50 [18]: 29.4 µM (inactive)
- GI50 [19]: 14.4 µM (inactive)
- GI50 [20]: 14.6 µM (inactive)

Compound: COC(=O)c1ccc2cc(O)ccc2c1
- GI50 [1]: 56.4 µM (inactive)
- GI50 [2]: 76.6 µM (inactive)
- GI50 [3]: 60.1 µM (inactive)
- GI50 [4]: 38.5 µM (inactive)
- GI50 [5]: 53.5 µM (inactive)
- GI50 [6]: > 100 µM (inactive)
- GI50 [7]: 75.7 µM (inactive)
- GI50 [8]: > 100 µM (inactive)
- GI50 [9]: 79.8 µM (inactive)
- GI50 [10]: 79.6 µM (inactive)
- GI50 [11]: > 100 µM (inactive)
- GI50 [12]: 78.9 µM (inactive)
- GI50 [13]: 47.9 µM (inactive)
- GI50 [14]: 32.4 µM (inactive)
- GI50 [15]: 41.5 µM (inactive)
- GI50 [16]: > 100 µM (inactive)
- GI50 [17]: 87.7 µM (inactive)
- GI50 [18]: 56.4 µM (inactive)
- GI50 [19]: 39.9 µM (inactive)
- GI50 [20]: 72.1 µM (inactive)
